In patent US20080248953A1, “Use of Bacteriocins For Promoting Plant Growth and Disease Resistance” (MCGILL UNIVERSITY, priority 2005, published 2008):

Legend:
Type in all cases: in vivo, Glycine max
[1] = system: superoxide dismutase (SOD); test: SOD activity in soybean leaves
Protocol: (§1) Soybean (Glycine max L. Merr. cv. OAC Bayfield) seeds were surface sterilized in 10% bleach, rinsed several times with distilled water and then germinated and grown in Vermiculite™ (Holiday, Montreal) in a growth chamber under a 16 h/8 h (day/night) regime (natural light supplemented with high pressure sodium lamps to reach the appropriate daylight), at 25±1° C., until they reached vegetative cotyledon (VC) stage (Fehr and Caviness, 1977).
(§2) Treatments of chitin hexamer and thuricin 17 were applied when the seedling reached the first trifoliate stage (˜2 weeks old). Chitin hexamer and thuricin 17 treatments were applied through cut stems, as described by Orozco-Cardenas and Ryan (1999). The plants were excised at the base of the stem with a sharp scalpel and promptly placed in 2 mL Eppendorff™ tubes containing 0.5 mL of 100 μmol L^−1 chitin hexamer [(GlcNAc)6], 0.5 mL of […] thuricin 17, and chitin hexamer+thuricin 17 mixed (1:1) solution in phosphate buffer (15 mM sodium phosphate, pH 6.5). The control plants were treated with phosphate buffer solution alone. […]
The activity of superoxide dismutase (SOD) was determined by measuring its ability to inhibit the photoreduction of nitroblue tetrazolium (NBT) following the method of Giannopolitis and Ries (1977). […] Absorbance was recorded at 560 nm. […]

[2] = system: peroxidase (POD); test: POD activity in soybean leaves; conditions: 72 h after treatment
Protocol: as §1
as §2, with “6.5).” for “6.5). The control plants were treated with phosphate buffer solution alone.”
The activity of peroxidase (POD) was assessed using the method of Chance and Maehly (1955). […] The reaction was started with addition of 20 μL of 40 mM H2O2 and the change in the absorbance at 470 nm was recorded for 1 min. The activity of peroxidase was calculated using an extinction coefficient for the tetraguaiacol of 26.6 mM^−1 cm^−1 at 470 nm. […]

[3] = system: catalase (CAT); test: Catalase activity staining after PAGE; conditions: soybean leaves
Protocol: (§3) Treatments of chitin hexamer and thuricin 17 were applied when the seedling reached the first trifoliate stage (˜2 weeks old). Chitin hexamer and thuricin 17 treatments were applied through cut stems, as described by Orozco-Cardenas and Ryan (1999). The plants were excised at the base of the stem with a sharp scalpel and promptly placed in 2 mL Eppendorff™ tubes containing 0.5 mL of 100 μmol L^−1 chitin hexamer [(GlcNAc)6], 0.5 mL of […] thuricin 17, and chitin hexamer+thuricin 17 mixed (1:1) solution in phosphate buffer (15 mM sodium phosphate, pH 6.5). The control plants were treated with phosphate buffer solution alone. Once all the solution was taken up by the plants (4-6 h), they were immediately transferred to glass test tubes containing 20 mL distilled water. The plants were kept under constant white light (85 μmol·m^−2·s^−1). Leaves were collected at 12, 24, 36, 48, 60 and 72 h after elicitor treatment, weighed, placed in plastic bags and stored immediately at −80° C.
For the catalase activity (CAT) staining after 12.5% PAGE, the gel was incubated with 3.2 mM H2O2 for 20 min, and a treatment with a solution containing 1% FeCl3 and 1% K3Fe(CN)6 for 10 min, as described by Racchi et al (2001).

[4] = system: total phenolic compounds; test: Total phenolics in soybean leaves (Folin-Ciocalteu)
Protocol: as §1, §2
Total phenolic content was determined by the Folin-Ciocalteu method (Singleton and Rossi, 1965). […] After 3 min, 0.475 mL of 1 mol L^−1 Na2CO3 was added and after 1 h absorbance was measured. […] The total phenolic content was expressed as gallic acid equivalents (GAE) in mg g^−1 fresh weight (FW).

[5] = system: tyrosine ammonia lyase (TAL); test: TAL activity in soybean leaves after treatment
Protocol: as §1
as §3, with “Leaves were collected at 12, 24, 36, 48, 60 and 72 h after elicitor treatment, weighed, placed in plastic bags and stored immediately at −80° C.” left out
(§4) Leaf samples (300 mg fresh weight) were extracted in 4 mL of buffer (50 mM Tris pH 8.5, 14.4 mmol L^−1 2-mercaptoethanol, 1% w/v insoluble polyvinyl-polypyrrorolidone) and centrifuged at 6,000 g for 10 min at 4° C. The total protein concentration in soluble enzyme extracts was determined using the Bradford (1976) assay.
(§5) The method of Beaudoin-Eagan and Thorpe (1985) was used to estimate phenylalanine ammonia lyase (PAL) and tyrosine ammonia lyase (TAL) activities. […] The amounts of trans-cinnamic and p-coumaric acids formed were determined by measuring absorbance at 290 and 330 nm, respectively, against an identical mixture in which D-phenylalanine was substituted for L-phenylalanine and D-tyrosine for L-tyrosine. […]

[6] = system: phenylalanine ammonia lyase (PAL); test: PAL activity in soybean leaves after treatment
Protocol: as §1
as §3, with “Leaves were collected at 12, 24, 36, 48, 60 and 72 h after elicitor treatment, weighed, placed in plastic bags and stored immediately at −80° C.” left out
as §4, §5

induction of SOD activity [1]: not induced | SOD activity increase compared with control ([1]; 48 h after treatment): 24.9% | POD activity increase compared with control [2]: 40.3% | induction of CAT activity [3]: elicited increases | TAL activity time course ([5]; 12 to 72 h after treatment): increased continuously | TAL activity increase compared with the control ([5]; 48 h after treatment): 18.8% | TAL activity increase compared with the control ([5]; 72 h after treatment): 23.8% | PAL activity time course ([6]; 12 to 72 h after treatment): increased continuously | PAL activity increase compared with control ([6]; 60 h after treatment): 8.4% | PAL activity greater than the control ([6]; 72 h after treatment): 18.1%
Compound: CC(=O)N[C@H]1[C@H](O[C@H]2[C@H](O)[C@@H](NC(C)=O)[C@H](O[C@H]3[C@H](O)[C@@H](NC(C)=O)C(O)O[C@@H]3CO)O[C@@H]2CO)O[C@H](CO)[C@@H](O[C@@H]2O[C@H](CO)[C@@H](O[C@@H]3O[C@H](CO)[C@@H](O[C@@H]4O[C@H](CO)[C@@H](O)[C@H](O)[C@H]4NC(C)=O)[C@H](O)[C@H]3NC(C)=O)[C@H](O)[C@H]2NC(C)=O)[C@@H]1O (stereo partly drawn) [chitin hexamer, chitin hexamer [(GlcNAc)6]]
total phenolics increase compared with the control ([4]; 36 h after treatment): 15.3% | total phenolics increase compared with the control ([4]; 72 h after treatment): 1.4%
